{"source": "patent US12624017B2", "about": "“Salt form of isoquinolinone type compound as rock inhibitor and preparation method therefor” (GUANGZHOU OCUSUN OPHTHALMIC BIOTECHNOLOGY CO., LTD., priority 2020, dated 2026)", "test_system": "New Zealand rabbits with normal intraocular pressure", "assay": "Intraocular pressure reduction, normal intraocular pressure, eye drops in both eyes for 14 days (Operation I)", "type": "in vivo, New Zealand white rabbits", "settings": "for Change in intraocular pressure: vs negative control", "description": "An intraocular pressure reduction effect and potential ocular toxicity of the compound of formula (I) were inspected with rabbits with normal intraocular pressure by repeated administration of eye drops for 14 days.\nMale New Zealand white rabbits, aged 97 to 127 days, weighted 2.6-3.5 kg, purchased from Pizhou Oriental Breeding Co., Ltd.\nThe Male New Zealand white rabbits were randomly divided into 7 groups according to body weights, 6 rabbits/group. The animals in Groups 1 to 7 were administrated dropwise with a solvent/control/test article in both eyes in an administration volume of 50 μL/eye, once a day for 14 consecutive days, and the day of first administration was recorded as Day 1. The intraocular pressures of the animals were measured before administration, as well as at 1, 2, 4, 6, 8 and 10 h after administration, respectively. On Days 2 to 14, the intraocular pressures of animals in the K-115 administration group were measured at 1 h after daily administration; and intraocular pressures of the animals in the remaining groups were measured at 4 h after daily administration.", "key": {"[1]": {"settings": "4 mg/mL once a day, Day 2, 1 h after daily administration"}, "[2]": {"settings": "4 mg/mL once a day, Day 3, 1 h after daily administration"}, "[3]": {"settings": "4 mg/mL once a day, Day 4, 1 h after daily administration"}, "[4]": {"settings": "4 mg/mL once a day, Day 5, 1 h after daily administration"}, "[5]": {"settings": "4 mg/mL once a day, Day 6, 1 h after daily administration"}, "[6]": {"settings": "4 mg/mL once a day, Day 7, 1 h after daily administration"}, "[7]": {"settings": "4 mg/mL once a day, Day 8, 1 h after daily administration"}, "[8]": {"settings": "4 mg/mL once a day, Day 9, 1 h after daily administration"}, "[9]": {"settings": "4 mg/mL once a day, Day 10, 1 h after daily administration"}, "[10]": {"settings": "4 mg/mL once a day, Day 11, 1 h after daily administration"}, "[11]": {"settings": "4 mg/mL once a day, Day 12, 1 h after daily administration"}, "[12]": {"settings": "4 mg/mL once a day, Day 13, 1 h after daily administration"}, "[13]": {"settings": "4 mg/mL once a day, Day 14, 1 h after daily administration"}, "[14]": {"settings": "4 mg/mL, Day 1, 1 h after administration"}, "[15]": {"settings": "4 mg/mL, Day 1, 2 h after administration"}, "[16]": {"settings": "4 mg/mL, Day 1, 4 h after administration"}, "[17]": {"settings": "4 mg/mL, Day 1, 6 h after administration"}, "[18]": {"settings": "4 mg/mL, Day 1, 8 h after administration"}, "[19]": {"settings": "4 mg/mL, Day 1, 10 h after administration"}, "[20]": {"settings": "4 mg/mL, Day 1, before administration"}}}
{"smiles": "C[C@H]1CNCCCN1S(=O)(=O)c1cccc2cncc(F)c12", "note": "[K-115, reference compound]", "values": [{"measurement": "Average intraocular pressure in both eyes", "setting": "[1]", "result": 6.83, "unit": "mmHg"}, {"measurement": "Change in intraocular pressure", "setting": "[1]", "result": 4.25, "unit": "mmHg"}, {"measurement": "Average intraocular pressure in both eyes", "setting": "[2]", "result": 6.81, "unit": "mmHg"}, {"measurement": "Change in intraocular pressure", "setting": "[2]", "result": 3.58, "unit": "mmHg"}, {"measurement": "Average intraocular pressure in both eyes", "setting": "[3]", "result": 6.92, "unit": "mmHg"}, {"measurement": "Change in intraocular pressure", "setting": "[3]", "result": 3.69, "unit": "mmHg"}, {"measurement": "Average intraocular pressure in both eyes", "setting": "[4]", "result": 6.67, "unit": "mmHg"}, {"measurement": "Change in intraocular pressure", "setting": "[4]", "result": 4.3, "unit": "mmHg"}, {"measurement": "Average intraocular pressure in both eyes", "setting": "[5]", "result": 6.75, "unit": "mmHg"}, {"measurement": "Change in intraocular pressure", "setting": "[5]", "result": 2.56, "unit": "mmHg"}, {"measurement": "Average intraocular pressure in both eyes", "setting": "[6]", "result": 7.39, "unit": "mmHg"}, {"measurement": "Change in intraocular pressure", "setting": "[6]", "result": 2.67, "unit": "mmHg"}, {"measurement": "Average intraocular pressure in both eyes", "setting": "[7]", "result": 7.53, "unit": "mmHg"}, {"measurement": "Change in intraocular pressure", "setting": "[7]", "result": 3.78, "unit": "mmHg"}, {"measurement": "Average intraocular pressure in both eyes", "setting": "[8]", "result": 7.78, "unit": "mmHg"}, {"measurement": "Change in intraocular pressure", "setting": "[8]", "result": 1.66, "unit": "mmHg"}, {"measurement": "Average intraocular pressure in both eyes", "setting": "[9]", "result": 7.94, "unit": "mmHg"}, {"measurement": "Change in intraocular pressure", "setting": "[9]", "result": 1.81, "unit": "mmHg"}, {"measurement": "Average intraocular pressure in both eyes", "setting": "[10]", "result": 7.94, "unit": "mmHg"}, {"measurement": "Change in intraocular pressure", "setting": "[10]", "result": 1.75, "unit": "mmHg"}, {"measurement": "Average intraocular pressure in both eyes", "setting": "[11]", "result": 7.89, "unit": "mmHg"}, {"measurement": "Change in intraocular pressure", "setting": "[11]", "result": 1.64, "unit": "mmHg"}, {"measurement": "Average intraocular pressure in both eyes", "setting": "[12]", "result": 8.25, "unit": "mmHg"}, {"measurement": "Change in intraocular pressure", "setting": "[12]", "result": 3.14, "unit": "mmHg"}, {"measurement": "Average intraocular pressure in both eyes", "setting": "[13]", "result": 8.50, "unit": "mmHg"}, {"measurement": "Change in intraocular pressure", "setting": "[13]", "result": 2.47, "unit": "mmHg"}, {"measurement": "Average intraocular pressure in both eyes", "setting": "[14]", "result": 7.72, "unit": "mmHg"}, {"measurement": "Change in intraocular pressure", "setting": "[14]", "result": 2.59, "unit": "mmHg"}, {"measurement": "Average intraocular pressure in both eyes", "setting": "[15]", "result": 9.00, "unit": "mmHg"}, {"measurement": "Change in intraocular pressure", "setting": "[15]", "result": 1.97, "unit": "mmHg"}, {"measurement": "Average intraocular pressure in both eyes", "setting": "[16]", "result": 9.67, "unit": "mmHg"}, {"measurement": "Change in intraocular pressure", "setting": "[16]", "result": 1.64, "unit": "mmHg"}, {"measurement": "Average intraocular pressure in both eyes", "setting": "[17]", "result": 10.56, "unit": "mmHg"}, {"measurement": "Change in intraocular pressure", "setting": "[17]", "result": 1.38, "unit": "mmHg"}, {"measurement": "Average intraocular pressure in both eyes", "setting": "[18]", "result": 10.28, "unit": "mmHg"}, {"measurement": "Change in intraocular pressure", "setting": "[18]", "result": 2.69, "unit": "mmHg"}, {"measurement": "Average intraocular pressure in both eyes", "setting": "[19]", "result": 12.81, "unit": "mmHg"}, {"measurement": "Change in intraocular pressure", "setting": "[19]", "result": 1.61, "unit": "mmHg"}, {"measurement": "Average intraocular pressure in both eyes", "setting": "[20]", "result": 10.83, "unit": "mmHg"}, {"measurement": "Change in intraocular pressure", "setting": "[20]", "result": "−0.94", "unit": "mmHg"}]}
